Experimental data as given in publication PMC4821601, “The Interactions of P-Glycoprotein with Antimalarial Drugs, Including Substrate Affinity, Inhibition and Regulation” (PLoS ONE, 2016).
Where two headings read alike, the source gives them in different places. Marks after values point to notes of the source that are not given here.

Assays:
[1] = cited from earlier work
P-gp [2] = settings: cited from earlier work
Caco-2 cell monolayers = experiment: Bidirectional transport (Papp, efflux ratio) of antimalarials through Caco-2 cell monolayers; type: in vitro ADME, human
Protocol: (§1) The initial experiments were conducted in mid-40s passage cells and repeated in early 80s passage Caco-2 cells. […] In order to maintain equivalent transport medium (HBSS/HBSS with inhibitor) level both outside and inside the chambers, 300 μL was used as medium in the apical chambers and 600 μL in the basolateral chambers. […] Drugs were co-incubated with MRCP, BCRP and ATP hydrolysis blockers to determine the involvement of other efflux mechanisms. Prior to the experiment, the transport medium, HBSS or HBSS with P-gp inhibitors were pre-incubated with the cells for 30 minutes. Following incubation, inserts were placed in new well plates and donor chamber is replaced with drug or drug with inhibitor and the receiver chamber with blank HBSS or HBSS with inhibitor. Transport medium was collected from the receiver chamber after stirring at time intervals of 30, 60, 90 and 120 minutes and was replaced with the same volume of fresh HBSS, or HBSS with inhibitor, when P-gp inhibitors were used in the study. At the end of the experiment 100 μL of medium was removed from the donor chamber in addition to medium collected from the receiver chamber during the study. The cells were then washed thoroughly in cold (4°C) PBS and cell membranes attached to the inserts were sonicated for 10 minutes in a sonicating water bath and centrifuged at 10,000 g for 10 minutes. Supernatant was frozen at -80°C until assayed. […] CL.vol=[…].vol = clearance volume (mL), n = time (min), Aa = amount in acceptor compartment at time n (pmols), Cd0 = concentration in donor compartment at time zero (nM), Vd = volume of the donor compartment (mL), Ca = concentration in acceptor compartment at the previous time point (nM), Vs = sample volume of previous time point (mL), Ac = amount of compound associated with the cells (pmol), Nfin = final time point (min). […] The cleared volume was plotted against time and the slope of the regression line was divided by the surface area to obtain the Papp values. […] The method from Davis and colleagues was adopted with slight modifications. Separations were performed using an Apollo C18 (5 μm, 4.6x150mm) column attached to a matched guard column (5 μm, 4.6x5.5 mm). […] The injection volume was 40 μL and column oven was maintained at 35°C. The analytes were detected at 222 nm and the retention time was 5.6 minutes. Assay developed by Pussard and co-workers were used and slight modifications were done to adjust laboratory conditions. Separation was done using a Prevail C18 (3 μm, 4.6x150mm) column attached to a Direct-connect^TM universal column prefilter. The mobile phase consisted of 20 mM (w/v) KH2PO4 in deionized water at pH 3.0 and acetonitrile (82:18) v/v. […] The injection volume was 40 μL and column oven was maintained at 30°C. The analytes were detected at 343 nm with a retention time of 2.4 minutes. […] Separations were performed using an Apollo C18 (5 μm, 4.6x150mm) column attached to matched guard column (5 μm, 4.6x5.5mm). […] The injection volume was 40 μL and column oven was maintained at 30°C. The analytes were detected at 660 nm with a retention time of 3.8 minutes. A 40 μL sample was spiked with 5 μL 0.5 mM artemisinin internal standard. […] The pipettor was adjusted to the maximum volume (100 μL). […] Pre-treated samples were loaded into the tips by gently aspirating and discarding into the same vial. The process was repeated 10 times in order to increase binding efficiency of drugs to the OMIX 96 C4 matrix. […] The LC-MS method described by […] and co-workers were modified to suit the LC-MS-MS conditions. […] Wexford, Ireland) at 40°C. […] Quantitation was performed in multiple reactions monitoring, MRM mode, using DUIS (ESI^+ and APCI^+) ion sources. […] The optimized mass spectra were acquired with an interface voltage of 4.5 kV, a detector voltage of 1.0 kV, a heat block temperature of 500°C and a desolvation temperature of 160°C.

[3] = as above; type: in vitro ADME, human; settings: human; for Papp at 120 min: Caco-2, Caco-2 monolayers
Protocol: as §1

P-glycoprotein (P-gp) = molecular target: T1, P-glycoprotein (P-gp) (Homo sapiens, UniProt P08183); experiment: Bidirectional transport of rhodamine123 through Caco-2 monolayers co-incubated with antimalarials (P-gp inhibitory properties); type: in vitro ADME
T1 construct: In-vitro Caco-2 cell monolayers were used here as a model for potential drug absorption related problems and P-gp mediated transport of drugs; endogenous in cells; host or cells: Caco-2 (human colon carcinoma, ATCC)
Protocol: The Caco-2 cells were seeded on 0.6 cm^2 […] Millipore PCF™ filter inserts at the cell density of 65,000 cells/cm^2 as done previously in the lab. Briefly, the cells were grown for 21–24 days to allow full maturation and formation of tight monolayers. The initial experiments were conducted in mid-40s passage cells and repeated in early 80s passage Caco-2 cells. The Trans epithelial electrical resistance (TEER) was measured immediately before and after the experiment using an epithelial voltage/ohm meter and an ENDOHM 12 chamber (World precision instruments, Sarasota, FL). TEER values were measured both before and after the study with readings above 300 Ω.cm^2 considered as acceptable for tight junctions. […] In order to maintain equivalent transport medium (HBSS/HBSS with inhibitor) level both outside and inside the chambers, 300 μL was used as medium in the apical chambers and 600 μL in the basolateral chambers. […] Drugs were co-incubated with MRCP, BCRP and ATP hydrolysis blockers to determine the involvement of other efflux mechanisms. Prior to the experiment, the transport medium, HBSS or HBSS with P-gp inhibitors were pre-incubated with the cells for 30 minutes. Following incubation, inserts were placed in new well plates and donor chamber is replaced with drug or drug with inhibitor and the receiver chamber with blank HBSS or HBSS with inhibitor. Transport medium was collected from the receiver chamber after stirring at time intervals of 30, 60, 90 and 120 minutes and was replaced with the same volume of fresh HBSS, or HBSS with inhibitor, when P-gp inhibitors were used in the study. At the end of the experiment 100 μL of medium was removed from the donor chamber in addition to medium collected from the receiver chamber during the study. The cells were then washed thoroughly in cold (4°C) PBS and cell membranes attached to the inserts were sonicated for 10 minutes in a sonicating water bath and centrifuged at 10,000 g for 10 minutes. Supernatant was frozen at -80°C until assayed. The Papp values of three well plates were determined using methods modified from Artursson’s group as described by Crowe and Lemaire.
CL.vol=Aa/{[Cd0×Vd−[Aa+(Ca×Vs)]−(Ac)×n/nfin]/Vd}
CL.vol = clearance volume (mL), n = time (min), Aa = amount in acceptor compartment at time n (pmols), Cd0 = concentration in donor compartment at time zero (nM), Vd = volume of the donor compartment (mL), Ca = concentration in acceptor compartment at the previous time point (nM), Vs = sample volume of previous time point (mL), Ac = amount of compound associated with the cells (pmol), Nfin = final time point (min). Papp = Apparent permeability (cm/sec) Rate of clearance (mL/min)=CL.vol / n Papp (cm/sec)=Rate of clearance / Surface area (cm^2)
The cleared volume was plotted against time and the slope of the regression line was divided by the surface area to obtain the Papp values. […] Mean Papp for Bas-Ap direction was divided by the Ap-Bas direction to obtain the efflux ratio and values above two were considered as drugs having true efflux transport.

P-gp [4] = settings: 20 μM, 96 hours, Caco-2, western blot vs control
Protocol: Caco-2 cells were seeded in 6 well plates at 10,000 cells/cm^2 for 21 days. Drugs and drug combinations at 20 μM prepared in cell growth medium were added on to the mature cells and exposed for 96 hours. After drug exposure, cells were washed three times using PBS and cell lysate was prepared in lysis buffer. The protein content was quantified using the 96 well micro-Lowry protein assay and regulation of P-gp was determined using western blotting.
The membrane was blocked using 2% casein in TBS and washed with TBST. The primary antibody; Mdr (G-1) mouse monoclonal IgG2b 200 and mouse anti-β actin were used as the antibody for β-actin, the reference protein. The antibody; HRP linked goat anti mouse IgG was used as the secondary antibody. The washed membrane was incubated in a BioRad clarity chemiluminescent substrate and enhancer was read and semi quantified using the BIORAD Chemidoc MPT imager with Image LabTM software.

[5] = tested on: Caco-2 intestinal epithelial cells; set-up: method as in PMID 8773952; settings: earlier report ref 53; cited from earlier work
[6] = summary in abstract, methylene blue depending on the direction of transport, read-out: permeability

T1 sequence (P08183 whole entry): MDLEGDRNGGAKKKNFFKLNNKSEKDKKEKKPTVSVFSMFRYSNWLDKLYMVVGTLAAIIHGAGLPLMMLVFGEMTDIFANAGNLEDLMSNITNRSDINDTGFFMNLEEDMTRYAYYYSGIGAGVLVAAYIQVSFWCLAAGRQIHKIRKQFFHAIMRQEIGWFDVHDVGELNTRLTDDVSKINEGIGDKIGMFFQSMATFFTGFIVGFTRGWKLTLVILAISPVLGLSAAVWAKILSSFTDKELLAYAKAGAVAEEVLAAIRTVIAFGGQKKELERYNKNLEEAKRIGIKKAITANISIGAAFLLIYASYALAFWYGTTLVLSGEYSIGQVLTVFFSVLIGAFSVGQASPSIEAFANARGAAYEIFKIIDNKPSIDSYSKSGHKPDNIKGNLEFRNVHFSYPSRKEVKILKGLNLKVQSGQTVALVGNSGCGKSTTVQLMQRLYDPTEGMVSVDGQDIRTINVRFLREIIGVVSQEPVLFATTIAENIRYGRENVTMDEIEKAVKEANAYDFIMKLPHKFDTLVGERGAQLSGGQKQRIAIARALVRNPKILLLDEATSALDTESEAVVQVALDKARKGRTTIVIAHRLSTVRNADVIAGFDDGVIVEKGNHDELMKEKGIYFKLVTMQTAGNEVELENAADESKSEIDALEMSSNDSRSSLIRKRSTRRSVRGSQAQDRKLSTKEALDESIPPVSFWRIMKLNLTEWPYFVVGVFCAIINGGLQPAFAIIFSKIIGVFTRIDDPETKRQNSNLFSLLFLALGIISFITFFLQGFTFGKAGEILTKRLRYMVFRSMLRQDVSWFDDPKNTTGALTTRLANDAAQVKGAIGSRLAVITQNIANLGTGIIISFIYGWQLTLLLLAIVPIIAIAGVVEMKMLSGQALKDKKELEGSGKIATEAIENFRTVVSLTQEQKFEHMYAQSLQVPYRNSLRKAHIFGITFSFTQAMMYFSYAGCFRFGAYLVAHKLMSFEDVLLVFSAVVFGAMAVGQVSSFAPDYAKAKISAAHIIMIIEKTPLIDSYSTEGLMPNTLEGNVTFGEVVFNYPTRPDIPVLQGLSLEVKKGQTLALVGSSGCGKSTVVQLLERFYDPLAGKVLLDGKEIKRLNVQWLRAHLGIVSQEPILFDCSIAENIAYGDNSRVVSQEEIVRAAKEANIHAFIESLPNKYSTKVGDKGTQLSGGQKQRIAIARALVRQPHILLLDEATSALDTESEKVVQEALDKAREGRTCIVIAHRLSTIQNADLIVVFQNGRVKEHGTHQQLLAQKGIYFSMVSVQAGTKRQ

**Q.** Which tmax ([1]; oral administration in human ref 46) does the source give for `CCN(CC)Cc1cc(Nc2ccnc3cc(Cl)ccc23)ccc1O` [AQ, amodiaquine] here?
**A.** The tmax was less than 1 h.

**Q.** And the P-gp inhibitory properties (P-gp [2]; at 100 and 1000 μM ref 38)?
**A.** The P-gp inhibitory properties was “P-gp inhibitory properties”.

**Q.** And the Net flow direction (Caco-2 cell monolayers; Conc (μM) + inhibitor (μM): 10)?
**A.** The Net flow direction was “Efflux (0.02) ^*”.

**Q.** And the Net flow direction (Caco-2 cell monolayers; Conc (μM) + inhibitor (μM): 100)?
**A.** Its Net flow direction is “Diffusion (0.74)”.

**Q.** What about the Papp at 120 min ([3]; drug alone, read-out: Ap-Bas directional Papp, range over concentrations tested) of the same molecule?
**A.** The Papp at 120 min was 16 to 22 ×10⁻⁶ cm/s.

**Q.** And the Papp at 120 min [3, 6]?
**A.** Its Papp at 120 min is roughly 20 ×10⁻⁶ cm/s.

**Q.** And the Papp at 120 min, 10 µM ([3]; Caco-2, Conc (μM) + inhibitor (μM): 10, first-named drug measured, read-out: Papp Ap-Bas)?
**A.** Its Papp at 120 min, 10 µM is 16 ± 1.1 ×10⁻⁶ cm/s.

**Q.** And the Papp B→A at 120 min, 10 µM ([3]; Caco-2, Conc (μM) + inhibitor (μM): 10, first-named drug measured, read-out: Papp Bas-Ap)?
**A.** Its Papp B→A at 120 min, 10 µM is 21.5 ± 0.9 ×10⁻⁶ cm/s.

**Q.** And the Papp at 120 min, 100 µM ([3]; Caco-2, Conc (μM) + inhibitor (μM): 100, first-named drug measured, read-out: Papp Ap-Bas)?
**A.** Its Papp at 120 min, 100 µM is 22.5 ± 2 ×10⁻⁶ cm/s.

**Q.** And the Papp B→A at 120 min, 100 µM ([3]; Caco-2, Conc (μM) + inhibitor (μM): 100, first-named drug measured, read-out: Papp Bas-Ap)?
**A.** The Papp B→A at 120 min, 100 µM was 23.3 ± 0.8 ×10⁻⁶ cm/s.

**Q.** For `C[C@H]1[C@H](OC(=O)CCC(=O)O)O[C@@H]2O[C@@]3(C)CC[C@H]4[C@H](C)CC[C@@H]1[C@@]24OO3` [ART, artesunate], which Net flow direction (Caco-2 cell monolayers; Conc (μM) + inhibitor (μM): 50) is on record?
**A.** Its Net flow direction is “Efflux (0.002) ^*”.

**Q.** What about the Efflux ratio (Caco-2 cell monolayers; Conc (μM) + inhibitor (μM): 50, Bas-Ap divided by Ap-Bas) of the same molecule?
**A.** Its Efflux ratio is 1.2.

**Q.** And the Papp at 120 min ([3]; read-out: permeability across the gastrointestinal epithelium (class))?
**A.** The Papp at 120 min was 1 to 25 ×10⁻⁶ cm/s.

**Q.** And the Papp at 120 min [3, 6]?
**A.** The Papp at 120 min was roughly 10 ×10⁻⁶ cm/s.

**Q.** And the efflux ratio at 120 min, 50 µM ([3]; Caco-2, Conc (μM) + inhibitor (μM): 50, Bas-Ap divided by Ap-Bas)?
**A.** The efflux ratio at 120 min, 50 µM was 1.5.

**Q.** And the Papp at 120 min, 50 µM ([3]; Caco-2, Conc (μM) + inhibitor (μM): 50, first-named drug measured, read-out: Papp Ap-Bas)?
**A.** The Papp at 120 min, 50 µM was 10.2 ± 0.3 ×10⁻⁶ cm/s.

**Q.** What about the Papp B→A at 120 min, 50 µM ([3]; Caco-2, Conc (μM) + inhibitor (μM): 50, first-named drug measured, read-out: Papp Bas-Ap) of the same molecule?
**A.** Its Papp B→A at 120 min, 50 µM is 12.3 ± 0.1 ×10⁻⁶ cm/s.

**Q.** And the P-gp inhibitory properties (P-glycoprotein (P-gp); at 100 μM)?
**A.** The P-gp inhibitory properties was “did not exhibit P-gp inhibitory properties”.

**Q.** And the P-gp inhibitory properties (P-glycoprotein (P-gp); at test concentrations)?
**A.** Its P-gp inhibitory properties is “did not exhibit P-gp inhibitory properties”.

**Q.** What about the “regulation of P-gp expression” value (P-gp [4]) of the same molecule?
**A.** The value was “slight up regulation of P-gp”.

**Q.** For `CN(C)c1ccc2nc3ccc(=[N+](C)C)cc-3sc2c1` [MB, methylene blue], which oral bioavailability ([1]; human volunteers, 100 mg ref 51) is on record?
**A.** The oral bioavailability was 10%.

**Q.** Which P-gp transport inhibition (P-gp [2]; at 4 μM ref 19) does the source give for `C/C=C/C[C@@H](C)C(=O)[C@H]1C(=O)N[C@@H](C(C)C)C(=O)N(C)CC(=O)N(C)[C@@H](CC(C)C)C(=O)N[C@@H](C(C)C)C(=O)N(C)[C@@H](CC(C)C)C(=O)N[C@@H](C)C(=O)N[C@H](C)C(=O)N(C)[C@@H](CC(C)C)C(=O)N(C)[C@@H](CC(C)C)C(=O)N(C)[C@@H](C(C)C)C(=O)N1C` [PSC-833, PSC 833] here?
**A.** The P-gp transport inhibition was “completely eradicate P-gp mediated transport”.

**Q.** Which “Efflux ratio of rh123” value (P-glycoprotein (P-gp); 5 μM rh123, 100 μM antimalarial drugs section) does the source give for `COC(=O)c1ccccc1-c1c2ccc(=N)cc-2oc2cc(N)ccc12` [Rh123, rhodamine123] here?
**A.** The value was 4.7.

**Q.** And the efflux ratio at 120 min, 5 µM (P-glycoprotein (P-gp); human, Caco-2, probe rhodamine 123, 5 μM rh123, 100 μM antimalarial drugs section)?
**A.** Its efflux ratio at 120 min, 5 µM is roughly 5.

**Q.** And the efflux ratio at 120 min, 5 µM (P-glycoprotein (P-gp); human, Caco-2, probe rhodamine 123, 5 μM rh123, 300 μM antimalarial drugs section)?
**A.** Its efflux ratio at 120 min, 5 µM is 5.7.

**Q.** What about the Papp at 120 min, 5 µM (P-glycoprotein (P-gp); human, Caco-2, probe rhodamine 123, 5 μM rh123, 300 μM antimalarial drugs section, read-out: Papp of rh123 Ap-Bas) of the same molecule?
**A.** Its Papp at 120 min, 5 µM is 0.5 ± 0.1 ×10⁻⁶ cm/s.

**Q.** For `C[C@H]1[C@H](OC(=O)CCC(=O)[O-])O[C@@H]2O[C@@]3(C)CC[C@H]4[C@H](C)CC[C@@H]1[C@@]24OO3.[Na+]` [sodium artesunate], which Papp [5] is on record?
**A.** Its Papp is 4 ×10⁻⁶ cm/s.
